Laboratory results reported in patent publication US20230322724A1, “HETEROCYCLIC COMPOUNDS AS CBP/EP300 BROMODOMAIN INHIBITORS” (AURIGENE ONCOLOGY LIMITED, priority 2020, published 2023).
Several values for one entry are separate records, joined by “and”; a condition that tells them apart may be missing. Equal values may be shown once.

Columns and labels:
Format in all cases: binding
[1] = target: T1, recombinant CREBBP bromodomain (Homo sapiens, UniProt Q92793); assay: CBP TR-FRET displacement assay; settings: for inhibition at 10 µM: compound at 10 μM; for IC50: dose-response, read-out: IC50 (group A, B, C)
T1 construct: recombinant CREBBP bromodomain obtained from BPS Bioscience, USA; purchased BPS Bioscience, USA
T1 sequence (Q92793 1085-1192 limits assumed): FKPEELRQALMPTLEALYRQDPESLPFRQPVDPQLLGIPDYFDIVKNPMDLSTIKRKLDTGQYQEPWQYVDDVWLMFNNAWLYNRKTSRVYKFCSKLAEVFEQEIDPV
Procedure, shortened: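 CREBBP bromodomain (50 nM) preincubated 30 min at room temperature with 500 nM biotinylated ligand in HEPES pH 7.5 buffer with TCEP, then 60 min with compound. Eu-anti-His/APC-streptavidin TR-FRET 665/615 nm ratio read; IC50 from sigmoidal dose-response fit.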

[2] = target: T2, recombinant P300 bromodomain (Homo sapiens, UniProt Q09472); assay: P300 TR-FRET displacement assay; settings: dose-response, read-out: IC50 (group A, B, C)
T2 construct: recombinant P300 bromodomain obtained from BPS Bioscience, USA; purchased BPS Bioscience, USA
T2 sequence (Q09472 1049-1156 limits assumed): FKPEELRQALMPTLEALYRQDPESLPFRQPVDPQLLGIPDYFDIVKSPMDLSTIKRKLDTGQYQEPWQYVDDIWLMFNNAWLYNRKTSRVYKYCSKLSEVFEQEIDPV
Method: The potency of compounds to inhibit P300 enzyme was tested in a TR-FRET displacement assay using recombinant P300 bromodomain obtained from BPS Bioscience, USA. The assay buffer was 50 mM HEPES (pH 7.5), 50 mM NaCl, 0.008% Brij 35, 0.01% BSA, 1 mM TCEP. 50 nM of P300 & 500 nM of Biotinylated ligand was incubated at room temperature for 30 minutes, the reaction was initiated by adding the pre-incubated enzyme ligand mixture to the test compounds. After 60 min incubation, the reaction was stopped by the addition of stop mix containing 1 nM of LANCE Europium-anti-6xHis antibody (Perkin Elmer, USA) and 40 nM of Sure Light Allophycocyanin-Streptavidin (Perkin Elmer, USA). Fluorescence emission of the samples at 665 and 615 nm were measured at an excitation of 340 nm and their ratio was plotted against the compound concentrations to generate dose-response curve.
Selected compounds of the present invention were screened in the above-mentioned assay procedures and IC50 values were determined by fitting the dose-response data to sigmoidal curve fitting equation using Graph pad prism software V7.

[3] = target: T3, recombinant BRD4 FL bromodomain (Homo sapiens, UniProt O60885); assay: BRD4 FL TR-FRET displacement assay; settings: BRD4 FL; for IC50: dose-response, read-out: IC50 (group A, B, C); for inhibition at 10 µM: compound at 10 μM, read-out: % Inhibition (10 μM)
T3 construct: fused on or other part: 6xHis tag, inferred from detection with Mab ANTI 6HIS-XL665
Procedure, shortened: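 Recombinant BRD4 FL (10 nM) pre-incubated 30 min at room temperature with 300 nM biotinylated acetyl-histone H4 (K5/8/12/16) in 50 mM HEPES pH 7.5, 50 mM NaCl, 500 μM CHAPS, then added to compounds for 30 min. Stopped with Eu-streptavidin/anti-6His-XL665 in KF; 665/615 nm ratio fitted sigmoidally for IC50.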

| Compound | inhibition at 10 µM [1] [%] | IC50 [1] | IC50 [2] [nM] | IC50 [3] [µM] | inhibition at 10 µM [3] [%] |
| --- | --- | --- | --- | --- | --- |
| Cc1cc2c(N3CCN(C)c4cc(-c5cnn(C)c5)ccc43)cccc2[nH]c1=O [Example 6] | 100 | > 10 nM | > 50000 | 2.01 to 5 | – |
| COc1cc(N2CCN(C)c3cc(-c4cnn(C)c4)c(C#N)cc32)c2cc(C)c(=O)[nH]c2c1 [Example 7] | 90 | < 50 nM | > 50000 | – | 77 |
| Cc1cc2c(N3CCN(C)c4cc(-c5cnn(C)c5)c(C#N)cc43)cccc2n(C)c1=O [Example 42] | 96 | < 50 nM | 25 to 50 | – | 81 |
| Cc1cc2c(N3CCN(C)c4cc(-c5cnn(C)c5)c(C=O)cc43)cccc2[nH]c1=O [Example 57, 1-Methyl-7-(1-methyl-1H-pyrazol-4-yl)-4-(3-methyl-2-oxo-1,2-dihydroquinolin-5-yl)-1,2,3,4-tetrahydroquinoxaline-6-carbaldehyde] | – | > 10 nM | > 50000 | – | – |
| COc1cc(N2CCNc3cc(-c4cnn(C)c4)c(C#N)cc32)c2cc(C)c(=O)n(C)c2c1 [Example 62, 4-(7-methoxy-1,3-dimethyl-2-oxo-1,2-dihydroquinolin-5-yl)-7-(1-methyl-1H-pyrazol-4-yl)-1,2,3,4-tetrahydroquinoxaline-6-carbonitrile] | – | > 10 nM | 25 to 50 | – | – |
| COc1cc(N2CCN(C)c3cc(C(=O)O)c(C#N)cc32)c2cc(C)c(=O)n(C)c2c1 [Example 68, 7-cyano-1-(7-methoxy-1,3-dimethyl-2-oxo-1,2-dihydroquinolin-5-yl)-4-methyl-1,2,3,4-tetrahydroquinoxaline-6-carboxylic acid] | – | < 50 nM | 25 to 50 | 2.01 to 5 | – |
| Cc1cc2c(N3CCN(C)c4cc(-c5cnn(C)c5)c(C#N)cc43)cc(OCC(=O)O)cc2n(C)c1=O [Example 71, 2-((5-(7-Cyano-4-methyl-6-(1-methyl-1H-pyrazol-4-yl)-3,4-dihydroquinoxalin-1(2H)-yl)-1,3-dimethyl-2-oxo-1,2-dihydroquinolin-7-yl)oxy)acetic acid] | – | < 50 nM | < 25 | – | – |
| COc1cc(N2CCN(C)c3ccc(-c4cnn(C)c4)cc32)c2cc(C)c(=O)n(C)c2c1 [Example 80] | – | > 10 nM | > 50000 | – | – |
| Cc1cc2c(N3CCN(C)c4cc(-c5cnn(C)c5)ncc43)cc(N3C[C@@H]4C[C@H]3CO4)cc2n(C)c1=O [Example 146, 7-((1S,4S)-2-oxa-5-azabicyclo[2.2.1]heptan-5-yl)-1,3-dimethyl-5-(1-methyl-7-(1-methyl-1H-pyrazol-4-yl)-2,3-dihydropyrido[3,4-b]pyrazin-4(1H)-yl)quinolin-2(1H)-one] | – | < 50 nM | > 50000 | – | – |
| CNC(=O)c1ccc(-c2cc3c(cc2C(F)F)N(c2cccc4c2cc(C)c(=O)n4C)CCC3)cn1 [Example 176] | – | < 50 nM | < 25 | – | – |
| Cc1cc2c(N3CCCc4cc(-c5cnn(C)c5)c(C(F)F)cc43)cc(N3CCOCC3)cc2n(C)c1=O [Example 178] | – | < 50 nM | < 25 | – | – |
| COc1cc(N2CCc3cc(-c4cnn(C)c4)c(C(F)F)cc32)c2cc(C)c(=O)n(C)c2c1 [Example 195, 5-(6-(Difluoromethyl)-5-(1-methyl-1H-pyrazol-4-yl)indolin-1-yl)-7-methoxy-1,3-dimethylquinolin-2(1H)-one] | – | < 50 nM | 25 to 50 | – | – |
| Cc1cc2c(N3CCCc4cc(-c5cnn(C)c5)c(C(F)F)cc43)nc(N3CC[C@@H](O)C3)cc2n(C)c1=O [Example 209] | – | < 50 nM | < 25 | – | – |
| CNC(=O)[C@@H]1CCN(c2cc3c(cc(C)c(=O)n3C)c(N3CCCc4cc(-c5cnn(C)c5)c(C(F)F)cc43)n2)C1 [Example 211] | – | < 50 nM | < 25 | – | – |
| Cc1cc2c(N3CCCc4cc(-c5cnn(C)c5)c(C(F)F)cc43)nc(N3C[C@@H](O)[C@H](O)C3)cc2n(C)c1=O [Example 215] | – | < 50 nM | < 25 | – | – |
| Cc1cc2c(N3CCCc4cc(-c5cnn(C)c5)c(C(F)F)cc43)nc(N3CC4(COC4)C3)cc2n(C)c1=O [Example 224] | – | < 50 nM | > 50000 | – | – |
| Cc1cc2c(N3CCCc4cc(-c5cnn(C)c5)c(C(F)F)cc43)nc(N3CCC4(COC4)C3)cc2n(C)c1=O [Example 225] | – | < 50 nM | 25 to 50 | – | – |
| Cc1cc2c(N3CCCc4cc(-c5cnn(C)c5)c(C(F)F)cc43)nc(N3CCOCC3)cc2n(C)c1=O [Example 234, 5-(7-(Difluoromethyl)-6-(1-methyl-1H-pyrazol-4-yl)-3,4-dihydroquinolin-1(2H)-yl)-1,3-dimethyl-7-morpholino-1,6-naphthyridin-2(1H)-one] | – | < 50 nM | < 25 | – | – |
| Cc1cc2c(N3CCCc4cc(-c5cnn(C)c5)c(C(F)F)cc43)nc(C3CCOCC3)cc2n(C)c1=O [Example 242, 5-(7-(Difluoromethyl)-6-(1-methyl-1H-pyrazol-4-yl)-3,4-dihydroquinolin-1(2H)-yl)-1,3-dimethyl-7-(tetrahydro-2H-pyran-4-yl)-1,6-naphthyridin-2(1H)-one] | – | < 50 nM | < 25 | – | – |

The next lines start with the values.

| inhibition at 10 µM [1] [%] | IC50 [1] | IC50 [2] [nM] | IC50 [3] [µM] | inhibition at 10 µM [3] [%] | Compound |
| --- | --- | --- | --- | --- | --- |
| – | < 50 nM | < 25 | – | – | Cc1cc2c(N3CCN(C)c4cc(-c5cnn(C)c5)c(C#N)cc43)cc(OCCO)cc2n(C)c1=O [Example 60, 4-(7-(2-Hydroxyethoxy)-1,3-dimethyl-2-oxo-1,2-dihydroquinolin-5-yl)-1-methyl-7-(1-methyl-1H-pyrazol-4-yl)-1,2,3,4-tetrahydroquinoxaline-6-carbonitrile] |
| – | < 50 nM | 25 to 50 | – | – | COC(=O)c1cc2c(cc1C#N)N(c1cc(OC)cc3c1cc(C)c(=O)n3C)CCN2C [Example 67, methyl 7-cyano-1-(7-methoxy-1,3-dimethyl-2-oxo-1,2-dihydroquinolin-5-yl)-4-methyl-1,2,3,4-tetrahydroquinoxaline-6-carboxylate] |
| – | < 50 nM | < 25 | – | – | Cc1cc2c(N3CCN(C)c4cc(-c5cnn(C)c5)ccc43)cc(OCC(=O)O)cc2n(C)c1=O [Example 72, 2-((1,3-Dimethyl-5-(4-methyl-6-(1-methyl-1H-pyrazol-4-yl)-3,4-dihydroquinoxalin-1(2H)-yl)-2-oxo-1,2-dihydroquinolin-7-yl)oxy)acetic acid] |
| – | < 50 nM | < 25 | – | – | COc1cc(N2CCN(C)c3cc(-c4cnn(C)c4)c(S(=O)(=O)NC(C)=O)cc32)c2cc(C)c(=O)n(C)c2c1 [Example 108] |
| – | < 50 nM and 51 to 100 nM | > 50000 | – | – | Cc1cc2c(N3CCN(C)c4cc(-c5cnn(C)c5)ncc43)cc(N3CCOCC3)cc2n(C)c1=O [Example 134] |
| – | < 50 nM | < 25 | – | – | CNC(=O)C1CCN(c2cc3c(cc(C)c(=O)n3C)c(N3CCCc4cc(-c5cnn(C)c5)c(C(F)F)cc43)n2)C1 (stereo not shown) [Example 201, 1-(5-(7-(Difluoromethyl)-6-(1-methyl-1H-pyrazol-4-yl)-3,4-dihydroquinolin-1(2H)-yl)-1,3-dimethyl-2-oxo-1,2-dihydro-1,6-naphthyridin-7-yl)-N-methylpyrrolidine-3-carboxamide] |
| – | < 50 nM | 25 to 50 | – | – | Cc1cc2c(N3CCCc4cc(-c5cnn(C)c5)c(C(F)F)cc43)nc(N3CC[C@H](O)C3)cc2n(C)c1=O [Example 210] |
| – | < 50 nM | < 25 | – | – | CNC(=O)[C@H]1CCN(c2cc3c(cc(C)c(=O)n3C)c(N3CCCc4cc(-c5cnn(C)c5)c(C(F)F)cc43)n2)C1 [Example 212] |
